Data from US9169241B2, “Quinolinyloxyphenylsulfonamides” (Max-Planck-Gesellschaft Zur Forderung der Wissenschaften …, priority 2009, dated 2015).
pIC50: −log10 of the molar value. Where two headings read alike, the source gives them in different places.

Legend:
[1] = tested on: Hs578T; assay: Matrigel outgrowth assay/branching assay; type: cell-based; details: Homo sapiens, Hs-578T; HS578T cell line; Table Ib; read-out: Total branching inhibition in Matrigel HS578T
Method in brief: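 Cells (5000/well) were seeded onto polymerized 3 mg/ml Matrigel with compound at 3.125, 1.56 or 0.78 μM, or DMSO. Imaging by inverted microscopy at 48, 72 and 96 h scored invasive branching. Only concentrations giving total branching inhibition counted as positive.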

[2] = tested on: indicated cell line; assay: Wound healing migration assay (Table IV); type: cell-based; details: compounds at 12.5, 6.25, 3.125 μM, 48 h-72 h
Method in brief: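 Cells seeded at 150000/24 well, grown to monolayer overnight, scratched with a pipette tip, then treated with compound at 12.5, 6.25 or 3.125 μM versus DMSO. Stopped by crystal violet fixation at 48-72 h once control wounds closed; IC50 taken as 50% wound size between t0 and t48 or t72.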

[3] = tested on: Hs578T; assay: Cell vitality assay (ATP assay, CellTiter-Glo); type: cell-based; details: Homo sapiens, Hs-578T, 72 h
Method in brief: (§1)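 Steps: seed 1000 cells per well; add compound (0.195–12.5 μM, 7 points) or DMSO; incubate 72 h; equilibrate to room temperature ~30 min; add reagent, shake 2 min, stand 10 min; read luminescence. IC50 relative to DMSO-control ATP.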

[4] = tested on: U118; assay: Cell vitality assay (ATP assay, CellTiter-Glo); type: cell-based
Method in brief: as §1

[5] = tested on: SF126; assay: Cell vitality assay (ATP assay, CellTiter-Glo); type: cell-based; details: Homo sapiens, SF-126
Method in brief: as §1

[6] = Homo sapiens, A 172, A172 cells, read-out: IC50 Wound healing Assay A172
[7] = Homo sapiens, SF-126, SF126 cells, read-out: IC50 Wound healing Assay SF126
[8] = Homo sapiens, C8161 cells, read-out: IC50 Wound healing Assay C8161
[9] = SF763 cells, read-out: IC50 Wound healing Assay SF763
[10] = U118 cells, read-out: IC50 Wound healing Assay U118
[11] = HS578T cell line, Table Ib, read-out: IC50 ATP-Assay HS578T after 72 h
[12] = Hs578T, Table IIa, read-out: IC50 ATP-Assay after 72 h Hs578T
[13] = U118, 72 h, Table IIa, read-out: IC50 ATP-Assay after 72 h U118
[14] = cell vitality assay, U118, Table IIc, read-out: IC50 U118
[15] = SF126, 72 h, Table IIa, read-out: IC50 ATP-Assay after 72 h SF126
[16] = cell vitality assay, SF126, Table IIb, read-out: IC50 SF126

| SMILES | pIC50 [1] | pIC50 [2, 6] | pIC50 [2, 7] | pIC50 [2, 8] | pIC50 [2, 9] | pIC50 [2, 10] | pIC50 [3, 11] | pIC50 [3, 12] | pIC50 [4, 13] | pIC50 [4, 14] | pIC50 [5, 15] | pIC50 [5, 16] | melting point |
| --- | --- | --- | --- | --- | --- | --- | --- | --- | --- | --- | --- | --- | --- |
| COc1cc2c(Oc3ccc(NS(=O)(=O)c4cc(F)ccc4F)cc3F)ccnc2cc1OCCCN1CCCCC1 [Example 1, 2,5-Difluoro-N-{3-fluoro-4-[6-methoxy-7-(3-piperidin-1-yl-propoxy)-quinolin-4-yloxy]-phenyl}-benzenesulfonamide] | ≥ 5.00 | ≥ 4.90 | ≥ 4.90 | ≥ 4.90 | ≥ 4.90 | ≥ 4.90 | ≥ 4.90 | 4.30 to 4.90 | ≥ 4.90 | ≥ 4.90 | ≥ 4.90 | ≥ 4.90 | 206 to 208 °C |
| COc1cc2c(Oc3ccc(NS(=O)(=O)c4c(Cl)cccc4Cl)cc3F)ccnc2cc1OCCCN1CCCCC1 [Example 6, 2,6-Dichloro-N-{3-fluoro-4-[6-methoxy-7-(3-piperidin-1-yl-propoxy)-quinolin-4-yloxy]-phenyl}-benzenesulfonamide] | ≥ 5.00 | ≥ 4.90 | ≥ 4.90 |  |  | ≥ 4.90 | ≥ 4.90 |  | ≥ 4.90 |  | ≥ 4.90 |  | 206 to 208 °C |
| COc1cc2c(Oc3ccc(NS(=O)(=O)c4ccccc4[N+](=O)[O-])cc3F)ccnc2cc1OCCCN1CCCCC1 [Example 7, N-{3-Fluoro-4-[6-methoxy-7-(3-piperidin-1-yl-propoxy)-quinolin-4-yloxy]-phenyl}-2-nitro-benzenesulfonamide] | 4.60 to 5.00 | ≥ 4.90 | ≥ 4.90 | ≥ 4.90 | ≥ 4.90 | ≥ 4.90 | ≥ 4.90 | ≥ 4.90 | 4.30 to 4.90 |  | 4.30 to 4.90 |  | 113 to 116 °C |
| COc1cc2c(Oc3ccc(NS(=O)(=O)c4cc(F)ccc4F)cc3F)ccnc2cc1OCCCN1CCN(C)CC1 [Example 12, 2,5-Difluoro-N-(3-fluoro-4-{6-methoxy-7-[3-(4-methyl-piperazin-1-yl)-propoxy]-quinolin-4-yloxy}-phenyl)-benzenesulfonamide] | ≥ 5.00 | ≥ 4.90 | ≥ 4.90 | ≥ 4.90 |  | ≥ 4.90 | ≥ 4.90 |  | ≥ 4.90 | ≥ 4.90 | ≥ 4.90 | ≥ 4.90 |  |
| COc1cc2c(Oc3ccc(NS(=O)(=O)c4cccc(Oc5ccccc5)c4)cc3F)ccnc2cc1OCCCN1CCN(C)CC1 [Example 14, N-(3-Fluoro-4-{6-methoxy-7-[3-(4-methyl-piperazin-1-yl)-propoxy]-quinolin-4-yloxy}-phenyl)-3-phenoxy-benzenesulfonamide] |  |  |  | 4.30 to 4.90 | 4.30 to 4.90 |  |  |  | 4.30 to 4.90 |  | ≥ 4.90 |  | 140 to 141 °C |
| COc1cc2c(Oc3ccc(NS(=O)(=O)c4ccccc4[N+](=O)[O-])cc3F)ccnc2cc1OCCCN1CCN(C)CC1 [Example 21, N-(3-Fluoro-4-{6-methoxy-7-[3-(4-methyl-piperazin-1-yl)-propoxy]-quinolin-4-yloxy}-phenyl)-2-nitro-benzenesulfonamide] | ≥ 5.00 |  |  | ≥ 4.90 | 4.30 to 4.90 |  |  |  | 4.30 to 4.90 |  | 4.30 to 4.90 |  | 125 to 128 °C |
| COc1cc2c(Oc3ccc(NS(=O)(=O)c4ccccc4C(F)(F)F)cc3F)ccnc2cc1OCCCN1CCN(C)CC1 [Example 24, N-(3-Fluoro-4-{6-methoxy-7-[3-(4-methyl-piperazin-1-yl)-propoxy]-quinolin-4-yloxy}-phenyl)-2-trifluoromethyl-benzenesulfonamide] |  |  |  | ≥ 4.90 |  |  |  |  |  | 4.30 to 4.90 |  | ≥ 4.90 | 102 to 106 °C |
| COc1cc2c(Oc3ccc(NS(=O)(=O)c4cc(Cl)cc(Cl)c4OC)cc3F)ccnc2cc1OCCCN1CCCCC1 [Example 34, 3,5-Dichloro-N-{3-fluoro-4-[6-methoxy-7-(3-piperidin-1-yl-propoxy)-quinolin-4-yloxy]-phenyl}-2-methoxy-benzenesulfonamide] | ≥ 5.00 |  |  | ≥ 4.90 | 4.30 to 4.90 |  | ≥ 4.90 |  |  |  |  |  | 173 to 175 °C |
| COc1cc2c(Oc3ccc(NS(=O)(=O)c4cc(Cl)cc(Cl)c4OC)cc3F)ccnc2cc1OCCCN1CCN(C)CC1 [Example 35, 3,5-Dichloro-N-(3-fluoro-4-{6-methoxy-7-[3-(4-methyl-piperazin-1-yl)-propoxy]-quinolin-4-yloxy}-phenyl)-2-methoxy-benzenesulfonamide] | ≥ 5.00 |  |  | ≥ 4.90 | ≥ 4.90 |  | ≥ 4.90 |  |  |  |  |  | 183 to 185 °C |
| COc1cc2c(Oc3ccc(NS(=O)(=O)c4ccc(F)c(Cl)c4)cc3F)ccnc2cc1OCCCN1CCCC(C)C1 (stereo not drawn) [Example 57, 3-Chloro-4-fluoro-N-(3-fluoro-4-{6-methoxy-7-[3-(3-methyl-piperidin-1-yl)-propoxy]-quinolin-4-yloxy}-phenyl)-benzenesulfonamide] | ≥ 5.00 |  |  | ≥ 4.90 | 4.30 to 4.90 |  | ≥ 4.90 |  |  |  |  |  | 124 to 126 °C |
| COc1cc2c(Oc3ccc(NS(=O)(=O)c4cccc5ccccc45)cc3F)ccnc2cc1OCCCN1CCCC(C)C1 (stereo not drawn) [Example 58, Naphthalene-1-sulfonic acid (3-fluoro-4-{6-methoxy-7-[3-(3-methyl-piperidin-1-yl)-propoxy]-quinolin-4-yloxy}-phenyl)-amide] | ≥ 5.00 |  |  | 4.30 to 4.90 | ≥ 4.90 |  | ≥ 4.90 |  |  |  |  |  | 131 to 133 °C |
| COc1cc2c(Oc3ccc(NS(=O)(=O)c4ccccc4F)cc3F)ccnc2cc1OCCN1CCOCC1 [Example 81, 2-Fluoro-N-{3-fluoro-4-[6-methoxy-7-(2-morpholin-4-yl-ethoxy)-quinolin-4-yloxy]-phenyl}-benzenesulfonamide] | ≥ 5.00 |  |  | ≥ 4.90 | 4.30 to 4.90 |  | ≥ 4.90 |  |  |  |  |  | 168 to 169 °C |
| COc1cc2c(Oc3ccc(NS(=O)(=O)c4c(F)cccc4F)cc3F)ccnc2cc1OCCN1CCOCC1 [Example 82, 2,6-Difluoro-N-{3-fluoro-4-[6-methoxy-7-(2-morpholin-4-yl-ethoxy)-quinolin-4-yloxy]-phenyl}-benzenesulfonamide] | ≥ 5.00 |  |  | ≥ 4.90 | ≥ 4.90 |  | ≥ 4.90 |  |  |  |  |  | 182 to 183 °C |
| COc1cc2c(Oc3c(Cl)cc(NS(=O)(=O)c4c(F)cccc4F)cc3Cl)ccnc2cc1OCCCN1CCN(C)CC1 [Example 88, N-(3,5-Dichloro-4-{6-methoxy-7-[3-(4-methyl-piperazin-1-yl)-propoxy]-quinolin-4-yloxy}-phenyl)-2,6-difluoro-benzenesulfonamide] | 4.60 to 5.00 |  |  | 4.30 to 4.90 | ≥ 4.90 |  |  | ≥ 4.90 | ≥ 4.90 |  | 4.30 to 4.90 |  |  |
| COc1cc2c(Oc3ccc(NS(=O)(=O)c4ccccc4C(F)(F)F)cc3F)ccnc2cc1OCCCNC1CCOCC1 [Example 95, N-(3-Fluoro-4-{6-methoxy-7-[3-(tetrahydro-pyran-4-ylamino)-propoxy]-quinolin-4-yloxy}-phenyl)-2-trifluoromethyl-benzenesulfonamide] | ≥ 5.00 |  |  | 4.30 to 4.90 | 4.30 to 4.90 |  |  | 4.30 to 4.90 | ≥ 4.90 |  | ≥ 4.90 |  |  |
| COc1cc2c(Oc3cccc(NS(=O)(=O)c4ccccc4C(F)(F)F)c3)ccnc2cc1OCCCN1CCN(C)CC1 [Example 102, N-(3-{6-Methoxy-7-[3-(4-methyl-piperazin-1-yl)-propoxy]-quinolin-4-yloxy}-phenyl)-2-trifluoromethyl-benzenesulfonamide] | 4.60 to 5.00 |  |  | 4.30 to 4.90 | ≥ 4.90 |  | ≥ 4.90 |  |  |  |  |  | 155 to 156 °C |
| COc1cc2c(Oc3ccc(NS(=O)(=O)c4c(F)cccc4F)cc3F)ccnc2cc1OCCCN1CCN(C)CC1 [Example 110, 2,6-Difluoro-N-(3-fluoro-4-{6-methoxy-7-[3-(4-methyl-piperazin-1-yl)-propoxy]-quinolin-4-yloxy}-phenyl)-benzenesulfonamide] | ≥ 5.00 | ≥ 4.90 | ≥ 4.90 |  |  | ≥ 4.90 | ≥ 4.90 |  | ≥ 4.90 |  | ≥ 4.90 |  |  |
